EC50 and Ki data for 18 molecules are collected here from ChEMBL document CHEMBL6182909 (J Med Chem, 2025).

pEC50, pKi: −log10 of the molar value.

Test [1] has as its target T1, 5-hydroxytryptamine receptor 2B (Homo sapiens, UniProt P41595). Briefly: Displacement of [125I]-DOI from 5-HT2B receptor (unknown origin) expressed in HEK293 cell membrane incubated for 1 hr by scintillation counter analysis. It is filed as cell membranes.
For test [2], the target named is T1, 5-hydroxytryptamine receptor 2B. Briefly: Displacement of [125I]-DOI from 5-HT2B receptor (unknown origin) expressed in HEK293 cell membrane assessed as inhibition constant incubated for 1 hr by scintillation counter analysis. It is filed as cell membranes.
The target of test [3] is T2, 5-hydroxytryptamine receptor 2A (Homo sapiens, UniProt P28223). Briefly: Displacement of [125I]-DOI from 5-HT2A receptor (unknown origin) expressed in HEK293 cell membrane incubated for 1 hr by scintillation counter analysis. Format: cell membranes.
Test [4] concerns the target T2, 5-hydroxytryptamine receptor 2A. Briefly: Displacement of [125I]-DOI from 5-HT2A receptor (unknown origin) expressed in HEK293 cell membrane assessed as inhibition constant incubated for 1 hr by scintillation counter analysis. It is filed as cell membranes.
The target in test [5] is T3, 5-hydroxytryptamine receptor 2C (Homo sapiens, UniProt P28335).
T3 sequence (P28335 whole entry): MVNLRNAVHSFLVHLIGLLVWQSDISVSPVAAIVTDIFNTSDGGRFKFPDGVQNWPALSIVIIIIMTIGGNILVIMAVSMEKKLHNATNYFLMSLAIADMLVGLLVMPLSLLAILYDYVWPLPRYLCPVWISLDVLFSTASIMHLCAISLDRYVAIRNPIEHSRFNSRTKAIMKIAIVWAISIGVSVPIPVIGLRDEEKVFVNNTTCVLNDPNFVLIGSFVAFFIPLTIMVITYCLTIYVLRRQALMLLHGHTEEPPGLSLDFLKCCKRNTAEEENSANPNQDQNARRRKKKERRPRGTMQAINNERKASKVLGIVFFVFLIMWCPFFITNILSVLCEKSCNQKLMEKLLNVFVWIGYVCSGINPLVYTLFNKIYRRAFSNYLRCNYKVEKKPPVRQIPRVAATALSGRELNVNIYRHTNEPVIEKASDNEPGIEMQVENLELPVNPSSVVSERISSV

Test [6] concerns the target T3, 5-hydroxytryptamine receptor 2C. This is another data set of the same source.

T2 sequence (P28223 whole entry): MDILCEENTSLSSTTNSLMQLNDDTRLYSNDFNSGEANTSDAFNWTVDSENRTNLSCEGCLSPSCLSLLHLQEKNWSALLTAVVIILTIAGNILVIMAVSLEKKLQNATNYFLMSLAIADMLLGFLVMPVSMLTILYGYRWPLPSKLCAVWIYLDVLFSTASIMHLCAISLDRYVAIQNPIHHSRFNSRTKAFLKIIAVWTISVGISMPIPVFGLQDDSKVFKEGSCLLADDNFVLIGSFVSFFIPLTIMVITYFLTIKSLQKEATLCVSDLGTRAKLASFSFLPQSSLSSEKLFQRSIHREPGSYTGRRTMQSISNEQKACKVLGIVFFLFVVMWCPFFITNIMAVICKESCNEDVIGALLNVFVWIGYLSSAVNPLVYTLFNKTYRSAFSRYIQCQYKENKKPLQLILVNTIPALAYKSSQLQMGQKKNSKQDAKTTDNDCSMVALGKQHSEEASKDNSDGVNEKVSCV
T1 sequence (P41595 whole entry): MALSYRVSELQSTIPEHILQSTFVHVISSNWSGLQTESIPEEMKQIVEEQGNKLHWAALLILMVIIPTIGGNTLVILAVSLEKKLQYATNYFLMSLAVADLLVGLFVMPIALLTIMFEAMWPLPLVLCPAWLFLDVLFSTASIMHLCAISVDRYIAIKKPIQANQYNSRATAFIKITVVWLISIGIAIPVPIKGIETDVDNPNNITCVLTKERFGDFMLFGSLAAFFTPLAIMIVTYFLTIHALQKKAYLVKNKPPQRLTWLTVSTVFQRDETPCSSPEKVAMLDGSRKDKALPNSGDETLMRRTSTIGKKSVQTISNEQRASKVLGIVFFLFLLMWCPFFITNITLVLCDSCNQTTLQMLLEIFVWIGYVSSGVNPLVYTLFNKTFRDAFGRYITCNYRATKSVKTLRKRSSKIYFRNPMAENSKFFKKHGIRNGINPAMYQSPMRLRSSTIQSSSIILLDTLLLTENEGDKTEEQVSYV

On to `CSCCNC(=O)c1ccc2c3c1CCN3CCNC2`, for which the pEC50 in test [1] was less than 4.30; in test [3], less than 4.30; in test [5], 7.23. For the same molecule, the pKi in test [2] was less than 4.30; in test [4], less than 4.52; in test [6], 7.08.
Regarding `CCOCCNC(=O)c1ccc2c3c1CCCN3CCNC2`, the results for the pEC50 in test [1], in test [3] and in test [5] were less than 4.30, less than 4.30 and 6.71, respectively. For the same molecule, the pKi was less than 4.30 in test [2], less than 4.30 in test [4] and 6.63 in test [6].
For the molecule `CNC(=O)c1ccc2c3c1CCCN3CCNC2`, the pEC50 in test [1] was less than 4.30; in test [3] it was less than 4.30; in test [5] it was 5.25.
Take `CCNC(=O)c1ccc2c3c1CCN3CCNC2`: the pEC50 in test [1] was less than 4.30; in test [3] it was less than 4.30; in test [5], 6.60. In addition, the pKi in test [2] is 5.09; in test [4], less than 4.52; in test [6] it was 6.68.
`NC(=O)c1ccc2c3c1CCN3CCNC2`: the pEC50 in test [1] is less than 4.30; in test [3], less than 4.30; in test [5], 5.57. The molecule also gave a pKi in test [6] of 6.30.
Consider `CC(C)OCCNC(=O)c1ccc2c3c1CCN3CCNC2`, for which the pEC50 in test [1] is less than 4.30; in test [3] it was less than 4.30; in test [5], 7.24. Moreover, the pKi in test [2] is less than 4.30; in test [4] it was less than 4.52; in test [6], 7.12.
With `CN(C)C(=O)c1ccc2c3c1CCN3CCNC2`, the pEC50 in test [1] was less than 4.30; in test [3] it was less than 4.30; in test [5], less than 4.52.
`CS(=O)(=O)CCNC(=O)c1ccc2c3c1CCN3CCNC2`: the pEC50 in test [1], in test [3] and in test [5] was less than 4.30 each time. Also, the pKi in test [2] is less than 4.30; in test [4] it was less than 4.52; in test [6] it was 4.90.
`COC(C)CNC(=O)c1ccc2c3c1CCN3CCNC2` (centres undefined): the pEC50 in test [1] was less than 4.30; in test [3], less than 4.30; in test [5], 6.09. Besides, the pKi was 5.11 in test [2], 6.08 in test [4] and 6.46 in test [6].
`COCCNC(=O)c1ccc2c3c1C(CC(F)(F)F)CN3CCNC2` (racemic): the pKi in test [2] was less than 4.30; in test [4], 6.66; in test [6], 7.42. In addition, in test [5], the pEC50 was 7.77.
Consider `CCNC(=O)c1ccc2c3c1C(CC(F)(F)F)CN3CCNC2` (racemic), for which the pKi in test [2] was 4.91; in test [4] it was 5.79; in test [6], 7.14. In test [5], the pEC50 was 7.35.
Consider `CCC1CN2CCNCc3ccc(C(=O)NCCF)c1c32` (racemic), for which the values for the pKi in test [2], in test [4] and in test [6] were less than 4.30, 6.67 and 6.92, respectively. Besides, the pEC50 in test [5] is 7.10.
On to `COCCNC(=O)c1ccc2c3c1CCCN3CCNC2`, for which the pEC50 in test [1] was less than 4.30; in test [3] it was less than 4.30; in test [5] it was 6.48.
`O=C(NCC(F)F)c1ccc2c3c1CCN3CCNC2`: the negative-log EC50 (pEC50) in test [1] is less than 4.30; in test [3], less than 4.30; in test [5], 6.40.
On to `O=C(NCC(F)(F)F)c1ccc2c3c1CCN3CCNC2`, for which the pEC50 in test [1], in test [3] and in test [5] was less than 4.30 throughout.
For `CNC(=O)c1ccc2c3c1C(CC(F)F)CN3CCNC2` (racemic), the results for the pKi in test [2], in test [4] and in test [6] were 6.09, 5.42 and 7.52, respectively. Moreover, the pEC50 in test [5] is 7.64.
As to `O=C(NCC(F)(F)F)c1ccc2c3c1C(CC(F)(F)F)CN3CCNC2` (racemic), the pKi was 5.29 in test [2], 5.13 in test [4] and 7.04 in test [6]. Besides, the pEC50 in test [5] was 6.75.
The corresponding values for `O=C(NCC(F)F)c1ccc2c3c1C(CC(F)(F)F)CN3CCNC2` (racemic) are less than 4.30, 5.57, 7.60 and 7.85.
